Laboratory results taken from the supplement of paper PMC10627819.

Key:
Assay in all cases: fitness (endpoint OD595 vs no drug) (fraction); higher = more growth
[1] = tested on: S. pneumoniae D39V
In short: (§1)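 With the first reading as background, OD595 was measured every 30 min for 14 h in 384-well plates kept at 37 °C and inoculated at OD595 0.01. TSB, LB Lennox or CY was the medium. Fitness is the optical density at the transition into stationary phase divided by the robust mean of no-drug control wells, with a cap of 1.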

[2] = tested on: B. subtilis 168
In short: as §1

[3] = tested on: S. aureus DSM 20231
In short: as §1

[4] = tested on: S. aureus Newman
In short: as §1
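Also: OD595 on entry to stationary phase over no-drug wells; at most 1.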

CCC[C@@H]1C[C@@H](C(=O)N[C@@H]([C@H]2O[C@H](SC)[C@H](O)[C@@H](O)[C@H]2O)[C@H](C)Cl)N(C)C1 [Clindamycin] + CN(C)[C@@H]1C(O)=C(C(N)=O)C(=O)[C@@]2(O)C(O)=C3C(=O)c4c(O)ccc(Cl)c4[C@@](C)(O)[C@H]3C[C@@H]12 [Chlortetracycline]
Settings | fitness
[1], first compound 0.0125 µg/mL, partner 0.012 µg/mL | 0.511
[1], first compound 0.0125 µg/mL, partner 0.024 µg/mL | 0.383
[1], first compound 0.0125 µg/mL, partner 0.048 µg/mL | 0.205
[1], first compound 0.015 µg/mL, partner 0.375 µg/mL | 0.0214
[1], first compound 0.015 µg/mL, partner 0.75 µg/mL | 0.0514
[1], first compound 0.015 µg/mL, partner 1.5 µg/mL | 0.0726
[1], first compound 0.025 µg/mL, partner 0.012 µg/mL | 0.334
[1], first compound 0.025 µg/mL, partner 0.024 µg/mL | 0.216
[1], first compound 0.025 µg/mL, partner 0.048 µg/mL | 0.122
[1], first compound 0.03 µg/mL, partner 0.375 µg/mL | 0.0643
[1], first compound 0.03 µg/mL, partner 0.75 µg/mL | 0.0687
[1], first compound 0.03 µg/mL, partner 1.5 µg/mL | 0.0605
[1], first compound 0.05 µg/mL, partner 0.012 µg/mL | 0.128
[1], first compound 0.05 µg/mL, partner 0.024 µg/mL | 0.13
[1], first compound 0.05 µg/mL, partner 0.048 µg/mL | 0.146
[1], first compound 0.06 µg/mL, partner 0.375 µg/mL | 0.0503
[1], first compound 0.06 µg/mL, partner 0.75 µg/mL | 0.0714
[1], first compound 0.06 µg/mL, partner 1.5 µg/mL | 0.0678
[2], first compound 0.0625 µg/mL, partner 0.0475 µg/mL | 0.407
[2], first compound 0.0625 µg/mL, partner 0.095 µg/mL | 0.362
[2], first compound 0.0625 µg/mL, partner 0.19 µg/mL | 0.0596
[2], first compound 0.125 µg/mL, partner 0.0475 µg/mL | 0.352
[2], first compound 0.125 µg/mL, partner 0.095 µg/mL | 0.0555
[2], first compound 0.125 µg/mL, partner 0.19 µg/mL | 0.0594
[2], first compound 0.25 µg/mL, partner 0.0475 µg/mL | 0.0818
[2], first compound 0.25 µg/mL, partner 0.095 µg/mL | 0.0386
[2], first compound 0.25 µg/mL, partner 0.19 µg/mL | 0.0515
[3], first compound 0.0312 µg/mL, partner 0.012 µg/mL | 0.0617
[3], first compound 0.0312 µg/mL, partner 0.024 µg/mL | 0.038
[3], first compound 0.0312 µg/mL, partner 0.048 µg/mL | 0.0237
[3], first compound 0.0625 µg/mL, partner 0.012 µg/mL | 0.032
[3], first compound 0.0625 µg/mL, partner 0.024 µg/mL | 0.0211
[3], first compound 0.0625 µg/mL, partner 0.048 µg/mL | 0.0234
[3], first compound 0.125 µg/mL, partner 0.012 µg/mL | 0.0303
[3], first compound 0.125 µg/mL, partner 0.024 µg/mL | 0.0207
[3], first compound 0.125 µg/mL, partner 0.048 µg/mL | 0.0343

fitness, one replicate
Settings | first compound 0.0039 µg/mL | first compound 0.0078 µg/mL | first compound 0.0156 µg/mL | first compound 0.0312 µg/mL | first compound 0.0625 µg/mL | first compound 0.125 µg/mL
[2], partner 0.0475 µg/mL | 0.996 | 0.88 | 0.814 | – | – | –
[2], partner 0.095 µg/mL | 0.911 | 0.831 | 0.721 | – | – | –
[2], partner 0.19 µg/mL | 0.779 | 0.697 | 0.633 | – | – | –
[3], partner 0.006 µg/mL | – | – | – | 0.198 | 0.0507 | 0.029

CCC[C@@H]1C[C@@H](C(=O)N[C@@H]([C@H]2O[C@H](SC)[C@H](O)[C@@H](O)[C@H]2O)[C@H](C)Cl)N(C)C1 [Clindamycin] + CO/N=C(\C(=O)N[C@@H]1C(=O)N2C(C(=O)O)=C(COC(N)=O)CS[C@H]12)c1ccco1 [Cefuroxime]
one replicate
Settings | fitness
[2], first compound 0.0039 µg/mL, partner 0.195 µg/mL | 0.442
[2], first compound 0.0039 µg/mL, partner 0.39 µg/mL | 0.397
[2], first compound 0.0039 µg/mL, partner 0.78 µg/mL | 0.389
[2], first compound 0.0078 µg/mL, partner 0.195 µg/mL | 0.438
[2], first compound 0.0078 µg/mL, partner 0.39 µg/mL | 0.367
[2], first compound 0.0078 µg/mL, partner 0.78 µg/mL | 0.392
[2], first compound 0.0156 µg/mL, partner 0.195 µg/mL | 0.366
[2], first compound 0.0156 µg/mL, partner 0.39 µg/mL | 0.326
[2], first compound 0.0156 µg/mL, partner 0.78 µg/mL | 0.28
[2], first compound 0.0625 µg/mL, partner 1.562 µg/mL | 0.135
[2], first compound 0.0625 µg/mL, partner 3.125 µg/mL | 0.0691
[2], first compound 0.0625 µg/mL, partner 6.25 µg/mL | 0.0572
[2], first compound 0.125 µg/mL, partner 1.562 µg/mL | 0.0526
[2], first compound 0.125 µg/mL, partner 3.125 µg/mL | 0.031
[2], first compound 0.125 µg/mL, partner 6.25 µg/mL | 0.0267
[2], first compound 0.25 µg/mL, partner 1.562 µg/mL | 0.0448
[2], first compound 0.25 µg/mL, partner 3.125 µg/mL | 0.028
[2], first compound 0.25 µg/mL, partner 6.25 µg/mL | 0.0276
[4], first compound 0.0312 µg/mL, partner 0.04875 µg/mL | 0.764
[4], first compound 0.0312 µg/mL, partner 0.0975 µg/mL | 0.681
[4], first compound 0.0312 µg/mL, partner 0.195 µg/mL | 0.718
[4], first compound 0.0625 µg/mL, partner 0.04875 µg/mL | 0.358
[4], first compound 0.0625 µg/mL, partner 0.0975 µg/mL | 0.304
[4], first compound 0.0625 µg/mL, partner 0.195 µg/mL | 0.21
[4], first compound 0.125 µg/mL, partner 0.04875 µg/mL | 0.111
[4], first compound 0.125 µg/mL, partner 0.0975 µg/mL | 0.0924
[4], first compound 0.125 µg/mL, partner 0.195 µg/mL | 0.078

fitness, [2]
Settings | first compound 0.0625 µg/mL | first compound 0.125 µg/mL | first compound 0.25 µg/mL
partner 0.04875 µg/mL | 0.396 | 0.401 | 0.218
partner 0.0975 µg/mL | 0.306 | 0.241 | 0.195
partner 0.195 µg/mL | 0.39 | 0.217 | 0.217

N[C@@H]1CONC1=O [Cycloserine D] + C/C(=C\C(=O)OCCCCCCCCC(=O)O)C[C@@H]1OC[C@H](C[C@@H]2O[C@H]2[C@@H](C)[C@H](C)O)[C@@H](O)[C@H]1O [Pseudomonic acid]
fitness, [4], one replicate
Settings | first compound 0.375 µg/mL | first compound 0.75 µg/mL | first compound 1.5 µg/mL
partner 0.0313 µg/mL | 0.0489 | 0.0331 | 0.0484
partner 0.0625 µg/mL | 0.0296 | 0.0319 | 0.0149
partner 0.125 µg/mL | 0.0371 | 0.0384 | 0.031

N[C@@H]1CONC1=O [Cycloserine D] + CC1(C)S[C@@H]2[C@H](NC(=O)Cc3ccccc3)C(=O)N2[C@H]1C(=O)O [Penicillin G]
fitness, [4]
Settings | first compound 0.375 µg/mL | first compound 0.75 µg/mL | first compound 1.5 µg/mL
partner 0.0195 µg/mL | 0.966 | 0.916 | 0.892
partner 0.039 µg/mL | 0.922 | 0.932 | 0.957
partner 0.078 µg/mL | 0.886 | 0.923 | 0.854

N[C@@H]1CONC1=O [Cycloserine D] + CC1=C(C(=O)O)N2C(=O)[C@@H](NC(=O)[C@H](N)c3ccccc3)[C@H]2SC1 [Cephalexin]
fitness
Settings | first compound 0.125 µg/mL | first compound 0.25 µg/mL | first compound 0.375 µg/mL | first compound 0.5 µg/mL | first compound 0.75 µg/mL | first compound 1.5 µg/mL
[2], partner 0.125 µg/mL | 0.865 | 0.894 | – | 0.848 | – | –
[2], partner 0.25 µg/mL | 0.909 | 0.857 | – | 0.921 | – | –
[2], partner 0.5 µg/mL | 0.911 | 0.88 | – | 0.867 | – | –
[4], partner 0.25 µg/mL | – | – | 0.948 | – | 0.955 | 0.926
[4], partner 0.5 µg/mL | – | – | 0.972 | – | ≥ 1 | 0.971
[4], partner 1 µg/mL | – | – | 0.992 | – | ≥ 1 | 0.995

[2], partner 1 µg/mL, one replicate
Settings | fitness
first compound 0.125 µg/mL | ≥ 1
first compound 0.25 µg/mL | 0.91
first compound 0.5 µg/mL | 0.985

N[C@@H]1CONC1=O [Cycloserine D] + CC(=O)NC[C@H]1CN(c2ccc(N3CCOCC3)c(F)c2)C(=O)O1 [Linezolid]
fitness, one replicate
Settings | first compound 0.125 µg/mL | first compound 0.25 µg/mL | first compound 0.375 µg/mL | first compound 0.5 µg/mL | first compound 0.75 µg/mL | first compound 1.5 µg/mL
[2], partner 0.0625 µg/mL | 0.943 | 0.866 | – | 0.846 | – | –
[3], partner 1 µg/mL | – | – | 0.0372 | – | 0.0417 | 0.0279

fitness
Settings | first compound 0.125 µg/mL | first compound 0.25 µg/mL | first compound 0.375 µg/mL | first compound 0.5 µg/mL | first compound 0.75 µg/mL | first compound 1.5 µg/mL
[2], partner 0.125 µg/mL | 0.566 | 0.574 | – | 0.562 | – | –
[2], partner 0.25 µg/mL | 0.135 | 0.115 | – | 0.13 | – | –
[2], partner 0.5 µg/mL | 0.0466 | 0.0569 | – | 0.0486 | – | –
[3], partner 0.125 µg/mL | – | – | 0.913 | – | 0.837 | 0.885
[3], partner 0.25 µg/mL | – | – | 0.517 | – | 0.597 | 0.537
[3], partner 0.5 µg/mL | – | – | 0.162 | – | 0.168 | 0.162
